According to patent US20070021351A1, “Liver/plasma concentration ratio for dosing hepatitis C virus protease inhibitor” (Schering Corporation, priority 2005, published 2007):

What was measured:
[1] = tested on: HCV replicon (bicistronic subgenomic replicon, genotype 1b); test: HCV replicon system, 72 hour assay in HuH-7 cells; type: cell-based
Excerpt: Changes in replicon RNA level are compared to an internal control, such as cellular glyceraldehydes-3-phosphate dehydrogenas (GAPDH) messenger RNA levels, in a single-tube multiplex reaction. […] Therefore, it is contemplated that compound of Formula Ia administration to a subject in need thereof according to the present invention results in about a 0.5- to about 4.0-log decrease in viral load RNA levels, preferably about a 1.0- to about 3.0-log decrease in viral load RNA.
Replicon systems are well-established surrogates for viral replication as there is no HCV viral culture system. The HCV replicon is a non-infectious genotype 1b viral genome in which the sequences encoding the structural proteins at the 5′ end of the RNA have been replaced by a selectable marker, neoR.
NS3-mediated cleavage of the HCV polyprotein releases functional viral proteins essential for viral propagation. Therefore, blockage of NS3 protease activity by compound of Formula Ia is expected to inhibit viral replication in infected host cells.

[2] = Example 3: multiple-dose (14 days) pharmacokinetics in HCV positive subjects; type: in vivo, human
Protocol: Multiple escalating doses of compound of Formula Ia were administered for 14 days to HCV positive subjects who were genotype 1 Interferon-a (with or without ribavirin) non responders. In a randomized, placebo controlled, third party blind study, multiple doses of 100 mg BID, 200 mg BID, 400 mg BID, 400 mg TID, and 600 mg TID of compound of Formula Ia or placebo in a 3:1 ratio with or without food were evaluated.
• Group 1: Compound of Formula Ia 100 mg (2×50 mg) BID or matching placebo×14 days without food. • Group 2: Compound of Formula Ia 200 mg (2×100 mg) BID or matching placebo×14 days without food. • Group 3: Compound of Formula Ia 400 mg (4×100 mg) BID or matching placebo×14 days without food. • Group 4: Compound of Formula Ia 400 mg (4×100 mg) TID or matching placebo×14 days without food. • Group 5: Compound of Formula Ia 400 mg (4×100 mg) BID or matching placebo×14 days with food. • Group 6: Compound of Formula Ia 600 mg (6×100 mg) BID or matching placebo×14 days without food. • Group 7: Compound of Formula Ia 600 mg (6×100 mg) BID or matching placebo×14 days with food. • Group 8: compound of Formula Ia 600 mg (6×100 mg) TID or matching placebo×14 days without food. • Group 9: compound of Formula Ia intermediate dose or matching placebo×14 days with or without food.
Each subject was randomized to one treatment group. On Day 14, only the AM dose was administered.
For Cohorts Without Food: Treatments were administered on the morning (approximately 8 AM) of Days 1 and 14 following a 10 hour fast. Fasting continued until 4 hours postdose. Water was allowed during the fasting period. On the nonpharmacokinetic collection days (Days 2 through 13) breakfast and dinner were consumed either 90 minutes before or 90 minutes after each dose. All treatments were administered with approximately 240 mL of noncarbonated water. All doses on Days 1-14 were administered at approximately the same time each day, for cohorts with BID dosing study treatment were administered approximately 12 hours apart at 8 AM and 8 PM, and for cohorts with TID dosing study treatment were administered approximately 8 hours apart at 8 AM, 4 PM, and 12 Midnight.
For Cohorts With TID Dosing: All volunteers were dosed three times daily at approximately the same time each day; the doses were administered approximately 8 hours apart at 8 AM, 4 PM, and 12 Midnight.
For Cohorts With BID Dosing: All volunteers were dosed twice a day at approximately the same time each day. The doses were administered approximately 12 hours apart at 8 AM and 8 PM.
On Day 14, all subjects received only their assigned AM dose. During the dosing the capsule(s) were swallowed whole, not chewed or crushed. After dosing, the oral cavity was inspected to assure the volunteer had completely swallowed the capsule(s). […] Water was permitted throughout the fasting and nonfasting periods. […]
The plasma concentration data of compound of Formula Ia was used to estimate the following pharmacokinetic parameters: • Cmax—Maximum observed plasma concentration; • Tmax—Time of observed maximum plasma concentration; • AUC(O-t)—Area under the plasma concentration-time curve over the dosing interval • AUC (tf)—Area under the plasma concentration-time curve to the final quantifiable sample • CL/F—Apparent total body clearance. • t½—Terminal phase half life • Vd/F—Apparent volume of distribution • R—Accumulation ratio […]

[3] = Pharmacokinetic parameter values on administration to a subject (summary); type: in vivo
Protocol: When the compounds are administered in fed subjects the bioavailability of the compound is increased about 100% and the mean Tmax of the compound of Formula Ia is increased about 60%.

[4] = Tissue distribution; type: in vivo; conditions: liver as well as extra-hepatic sites
[5] = human, plasma, oral, summary range, dose not stated

For `CC(C)(C)NC(=O)N[C@H](C(=O)N1C[C@H]2[C@@H]([C@H]1C(=O)NC(CC1CCC1)C(=O)C(N)=O)C2(C)C)C(C)(C)C` (mixture of isomers) [Formula Ia, (1R,5S)-N-[3-Amino-1-(Cyclobutylmethyl)-2,3-Dioxopropyl]-3-[2(S)-[[[(1,1-Dimethylethyl)Amino]Carbonyl]Amino]-3,3-Dimethyl-1-Oxobutyl]-6,6-Dimethyl-3-Azabicyclo[3.1.0]Hexan-2(S)-Carboxamide], the IC50 ([1]; Hepatitis C virus, Huh-7, 72 h, read-out: IC50 for suppression of the HCV replicon) was at most 200 nM, the IC90 ([1]; Hepatitis C virus, Huh-7, 72 h, read-out: IC90 for suppression of the HCV replicon) was at most 400 nM and the “replicon RNA decrease compared with 6×IC90” value ([1]; exposure to 12×IC90 (5 μM)) was “comparable results”. For the same compound, the “mean accumulation ratio for BID dosing” value ([2]; BID dosing, 14 days) was 1, the Cmax ([2]; Day 14, 400 mg BID without food, mean, n=11) was 459 ng/mL and the “AUC(0-12 hr)” value ([2]; Day 14, 400 mg BID, mean, n=11) was 1644 ng·h/mL. For the same compound, the concentration at 11 day ([2]; human, plasma, multiple oral dosing, read-out: steady-state level (trough, Cmin)) was about 200 ng/mL, the “time at which steady-state levels were reached” value ([2]; trough data (Cmin)) was about 11 days and the increase of bioavailability ([3]; fed subjects) was “about 100%”. For the same compound, the “increase of mean Tmax” value ([3]; fed subjects) was “about 60%”, the Cmax [3, 5] was 50 to 800 ng/mL and the Tmax [3, 5] was 1 to 5 h. The Vd/F [3, 5] was 1500 to 6000 L, the half-life [3, 5] was 2 to 15 h and the AUC(0-t) ([3]; human, plasma, oral, summary range, dose not stated, read-out: AUC(0-8 hr)) was 500 to 3000 ng·h/mL. For the same compound, the tissue distribution [4] was “distributes widely throughout the tissues of the body”.
